The supplement of paper PMC11368000

Key:
Details in all cases: exposure time: 90 min
[1] = system: 1083 (donor line of iPSC-derived cardiomyocytes); assay: POD (EC10) for decrease in total cell number (cytotoxicity) vs vehicle; higher = less potent (higher point of departure)
Description: (§1)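 Human iPSC-derived cardiomyocytes from 16 donors were exposed for 90 min at 37 °C to each PFAS at 0.1, 1, 10 and 100 µM in 0.5% DMSO, 384-well plates. Kinetic Ca2+ flux (FLIPR) and Hoechst nuclei counts were normalised to vehicle wells and fitted with a hierarchical Bayesian Hill model to give donor-specific PODs: EC05 for beat-rate increase or decrease and for decay-to-rise ratio increase (QT proxy), EC95 for peak-frequency loss (asystole), EC10 for total cell number loss. 0.03 µM is the lower bound.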

[2] = system: 11235 (donor line of iPSC-derived cardiomyocytes); assay: as above
Description: as §1

[3] = system: 1368 (donor line of iPSC-derived cardiomyocytes); assay: as above
Description: as §1

[4] = system: 1392 (donor line of iPSC-derived cardiomyocytes); assay: as above
Description: as §1

[5] = system: 1434 (donor line of iPSC-derived cardiomyocytes); assay: as above
Description: as §1

[6] = system: 1535 (donor line of iPSC-derived cardiomyocytes); assay: as above
Description: as §1

[7] = system: 1565 (donor line of iPSC-derived cardiomyocytes); assay: as above
Description: as §1

[8] = system: 20084 (donor line of iPSC-derived cardiomyocytes); assay: as above
Description: as §1

[9] = system: 30145 (donor line of iPSC-derived cardiomyocytes); assay: as above
Description: as §1

[10] = system: 1083; assay: POD (EC05) for decrease in beat frequency (negative chronotrope) vs vehicle; higher = less potent (higher point of departure)
How it was run: (§2)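 Cardiomyocytes derived from human iPSCs of 16 donors were grown 14 days in gelatin-coated 384-well plates, loaded 2 h with a fluorescent Ca2+ dye, then exposed for 90 min at 37 °C to final concentrations of 0.1, 1, 10 and 100 µM in 0.5% DMSO. A FLIPR Tetra recorded Ca2+ flux at 8 frames/s for 100 s before and after exposure. Points of departure for each donor were derived by hierarchical Bayesian Hill fitting of vehicle-normalised beat frequency, decay-to-rise ratio or peak frequency. The thresholds applied were a 5% change, or a 95% loss for peak frequency.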

[11] = system: 1118 (donor line of iPSC-derived cardiomyocytes); assay: as above
How it was run: as §2

[12] = system: 11235; assay: as above
How it was run: as §2

[13] = system: 1309 (donor line of iPSC-derived cardiomyocytes); assay: as above
How it was run: as §2

[14] = system: 1368; assay: as above
How it was run: as §2

[15] = system: 1434; assay: as above
How it was run: as §2

[16] = system: 1531 (donor line of iPSC-derived cardiomyocytes); assay: as above
How it was run: as §2

[17] = system: 20032 (donor line of iPSC-derived cardiomyocytes); assay: as above
How it was run: as §2

[18] = system: 20084; assay: as above
How it was run: as §2

[19] = system: 30145; assay: as above
How it was run: as §2

[20] = system: 30171 (donor line of iPSC-derived cardiomyocytes); assay: as above
How it was run: as §2

Measured: POD vs vehicle

OCC(F)(F)C(F)(F)C(F)(F)CO [Hexafluoroamylene_glycol]
> 100 µM: all assays above

O=S(=O)(O)C(F)(F)C(F)(F)C(F)(F)C(F)(F)C(F)(F)C(F)(F)F [Perfluorohexanesulfonic_acid]
24.5 µM: [16]
84.5 µM: [17]
63.6 µM: [15]
19.6 µM: [11]
46.1 µM: [20]
26.5 µM: [12]
78.1 µM: [13]
> 100 µM: all other assays above

NC(O)(C(F)(F)F)C(F)(F)F [2-Aminohexafluoropropan-2-ol]
7.51 µM: [12]
80.9 µM: [17]
16.9 µM: [11]
36.5 µM: [20]
85.7 µM: [15]
> 100 µM: all other assays above

O=C(O)C(F)(F)C(F)(F)C(F)(F)C(F)(F)C(F)(F)C(F)(F)C(F)(F)C(F)(F)C(F)(F)C(F)(F)F [Perfluoroundecanoic_acid]
0.96 µM: [20]
0.395 µM: [12]
> 100 µM: all other assays above

O=C(O)C(F)(F)C(F)(F)F [Perfluoropropanoic_acid]
> 100 µM: all assays above

O=C(O)CCC(F)(F)C(F)(F)C(F)(F)C(F)(F)C(F)(F)C(F)(F)C(F)(F)F [3-Perfluoroheptylpropanoic_acid]
24.9 µM: [20]
21 µM: [15]
20.2 µM: [12]
13.8 µM: [11]
80.7 µM: [16]
> 100 µM: all other assays above

NC(=O)C(F)(F)C(F)(F)C(F)(F)C(F)(F)F [Nonafluoropentanamide]
17.3 µM: [11]
> 100 µM: all other assays above

O=S(=O)(OCC(F)(F)F)C(F)(F)C(F)(F)C(F)(F)C(F)(F)F [2,2,2-Trifluoroethyl_perfluorobutanesulfonate]
49.1 µM: [20]
> 100 µM: all other assays above

O=C([O-])C(F)(F)C(F)(F)C(F)(F)C(F)(F)C(F)(F)C(F)(F)C(F)(F)F.[NH4+] [Ammonium_perfluorooctanoate]
46.1 µM: [15]
7.16 µM: [20]
18.9 µM: [16]
4.51 µM: [12]
11 µM: [11]
79.9 µM: [17]
> 100 µM: all other assays above
